Key:
[1] = tested on: Hep G2 cells; experiment: In vitro expression of firefly-luciferase, Hep G2; format: cell-based; settings: cirRNA (SEQ ID NO: 1) LNPs; firefly-luciferase luminescence; Hep G2 cells
Protocol: (§1) RAW 264.7 and Hep G2 cells were transfected with 100 ng/mL of RNA-LNPs encoding for firefly-luciferase. At 72 hours post transfection, the cells were washed and lysed. The luciferase expression was determined in the cell lysates with the luciferase assay reagent kit (Promega), according to the kit protocol, luciferase activity was measured by a luminometer.

[2] = RNA encapsulation efficacy by Quant-IT Ribogreen kit; format: physicochemical; settings: LNP with cirRNA (SEQ ID NO: 1)
Protocol: (§2) Ionizable lipid, DSPC, Cholesterol and DMG-PEG 2000 were mixed at a molar ratio of 50:10:38.5:1.5 in absolute ethanol. Circular RNA and linear mRNA payloads were suspended in 25 mM Acetate Buffer (pH 4.5). To form LNPs, three volumes of luciferase encoding RNA, in the form of cirRNA (SEQ ID NO:1) and mRNA (SEQ ID NO:2) respectively, were mixed with one volume of lipids in ethanol solution by microfluidic mixing with the Nanoassemblr Ignite (Precision Nanosystems) at a flow rate of 12 ml/min. The molar ratio of ionizable lipid to ribonucleotide was 15 or 6. The final lipid concentration in solution ranged from 1.5 mM to 6 mM. After encapsulation, the particles were dialyzed twice against PBS.
(§3) The LNP size and polydispersity index (PDI), determined by dynamic light scattering (DLS), and zeta potential were measured by a Zetasizer machine (Malvern). RNA concentration and encapsulation efficacy were analyzed by the Quant-IT Ribogreen kit by calculating the percentage encapsulation at 100%−(RNA-LNPs/RNA-LNPs with Triton X-100).

[3] = tested on: RAW 264.7 cells; experiment: In vitro expression of firefly-luciferase, RAW 264.7; format: cell-based; settings: cirRNA (SEQ ID NO: 1) LNPs; firefly-luciferase luminescence; RAW 264.7 cells
Protocol: as §1

[4] = tested on: Hep G2 cells; experiment: In vitro toxicity (CellTiter-Glo cell viability), Hep G2; format: cell-based; settings: cirRNA (SEQ ID NO: 1) LNPs; Hep G2 cells;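 also: percent of untreated cells luminescence signal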
Protocol: (§4) RAW 264.7 and Hep G2 cells were transfected with 1 μg/mL RNA-LNPs. At 72 hours post transfection, cell viability was determined with the CellTiter-Glo® reagent kit, according to the kit protocol, measured by a luminometer.
(§5) The cell viability was calculated according to the following formula: […]

[5] = tested on: BALB/C mice; experiment: In vivo expression, whole-body luminescence (IVIS); settings: cirRNA (SEQ ID NO: 1) LNPs, BALB/C mice
Protocol: 6-8 week old, female BALB/C mice were injected with 0.05 mg*kg-1 of RNA-LNPs encoding for firefly-luciferase by intravenous injection. At 6 hours post injection, animals were intraperitoneally injected with 15 mg/ml of Luciferin substrate and whole-body luminescence was determined by a bioluminescent in vivo imaging system (IVIS).

[6] = LNP zeta potential (Zetasizer); format: physicochemical; settings: LNP with cirRNA (SEQ ID NO: 1)
Protocol: as §2, §3

[7] = tested on: RAW 264.7 cells; experiment: In vitro toxicity (CellTiter-Glo cell viability), RAW 264.7; format: cell-based; settings: cirRNA (SEQ ID NO: 1) LNPs; RAW 264.7 cells;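 also: percent of untreated cells luminescence signal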
Protocol: as §4, §5

[8] = LNP size and polydispersity index (PDI) by dynamic light scattering; format: physicochemical; settings: LNP with cirRNA (SEQ ID NO: 1); for Size: in nm (unit assumed)
Protocol: as §2, §3

SMILES	In vitro Expression HepG2 [1]	Encapsulation Efficiency % [2] [%]	In vitro Expression RAW [3]	In vitro Viability HepG2 [4] [%]	In vivo Expression (Whole Body) [5]	Zeta (mV) [6] [mV]	In vitro Viability RAW [7] [%]	PDI [8]	Size [8]
CCCCC/C=C\C/C=C\CCCCCCCCN(CCCCCCCC/C=C\C/C=C\CCCCC)CCOC(=O)NCCN(C)C [Lipid 41, 2-(di((9Z,12Z)-octadeca-9,12-dien-1-yl)amino)ethyl (2-(dimethylamino)ethyl)carbamate]	2.77E+01	91	1.12E+05	89	4.69E+04	5.74	70	0.163	186
CCCCCCCCC(CCCCCC)C(=O)OCCCCCCCCN(CCCCCCCCCCC(=O)OCCCCCC)CCOC(=O)NCCN1CCN(C)CC1 (stereo not drawn) [Lipid 46, hexyl 11-((8-((2-hexyldecanoyl)oxy)octyl)(2-(((2-(4-methylpiperazin-1-yl)ethyl)carbamoyl)oxy)ethyl)amino)undecanoate]	3.70E+01	100	3.51E+02	102	1.92E+06	3.255	99	0.088	137.6
CCCCC/C=C\C/C=C\CCCCCCCCN(CCCCCCCC/C=C\CCCCCCCC)CCOC(=O)NCCN(C)C [Lipid 67, 2-(((Z)-octadec-9-en-1-yl)((9Z,12Z)-octadeca-9,12-dien-1-yl)amino)ethyl (2-(dimethylamino)ethyl)carbamate]	1.21E+05	99	5.99E+02	120	6.00E+07	8.392	107	0.087	142.9
CCCCC/C=C\C/C=C\CCCCCCCCN(CCCCCCCC/C=C\CCCCCCCC)CCOC(=O)NCCCN(CC)CC [Lipid 69, 2-(((Z)-octadec-9-en-1-yl)((9Z,12Z)-octadeca-9,12-dien-1-yl)amino)ethyl (3-(diethylamino)propyl)carbamate]	4.62E+04	95	2.25E+02	86	2.17E+06	16.31	102	0.205	161.1
CCCCC/C=C\C/C=C\CCCCCCCCN(CCCCCCCC/C=C\CCCCCCCC)CCOC(=O)NCCN1CCN(C)CC1 [Lipid 70, 2-(((Z)-octadec-9-en-1-yl)((9Z,12Z)-octadeca-9,12-dien-1-yl)amino)ethyl (2-(4-methylpiperazin-1-yl)ethyl)carbamate]	9.79E+04	97	2.29E+03	120	2.08E+05	11.22	104	0.115	83.09
CCCCC/C=C\C/C=C\CCCCCCCCN(CCCCCC(=O)OCC(CCCCCCCC)CCCCCCCCCC)CCOC(=O)NCc1ncc[nH]1 (stereo not drawn) [Lipid 76, 2-octyldodecyl 6-((2-((((1H-imidazol-2-yl)methyl)carbamoyl)oxy)ethyl)((9Z,12Z)-octadeca-9,12-dien-1-yl)amino)hexanoate]	1.22E+04	96	5.53E+02	121	2.55E+05	0.03131	86	0.1484	137.8
CCCCC/C=C\C/C=C\CCCCCCCCN(CCCCCC(=O)OCC(CCCCCCCC)CCCCCCCCCC)CCOC(=O)NCCN1CCN(C)CC1 (stereo not drawn) [Lipid 78, 2-octyldodecyl 6-((2-(((2-(4-methylpiperazin-1-yl)ethyl)carbamoyl)oxy)ethyl)((9Z,12Z)-octadeca-9,12-dien-1-yl)amino)hexanoate]	1.31E+05	100	7.80E+03	113	4.92E+05	9.83	106	0.0918	110
CCCCC/C=C\C/C=C\CCCCCCCCN(CCCCCC(=O)OCC(CCCCCCCC)CCCCCCCCCC)CCOC(=O)NCCN1CCOCC1 (stereo not drawn) [Lipid 79, 2-octyldodecyl 6-((2-(((2-morpholinoethyl)carbamoyl)oxy)ethyl)((9Z,12Z)-octadeca-9,12-dien-1-yl)amino)hexanoate]	3.94E+03	93	4.60E+01	104	4.70E+07	−2.908	104	0.2181	99.18
CCCCC/C=C\C/C=C\CCCCCCCCN(CCCCCCCC/C=C\C/C=C\CCCCC)CCOC(=O)NCCN1CCCCC1 [Lipid 85]	2.85E+07	91	5.74E+05	78	1.96E+07	4.031	105	0.1671	81.48
CCCCCCCOC(=O)CCCCCCCCCN(CCCCCCCCCC(=O)OCCCCCCC)CCOC(=O)NCCN1CCCC1 [Lipid 119, diheptyl 10,10′-((2-(((2-(pyrrolidin-1-yl)ethyl)carbamoyl)oxy)ethyl)azanediyl)bis(decanoate)]	1.46E+03	96	1.47E+04	17	9.30E+05	9.53	8	0.064	142.1
CCCCCCCOC(=O)CCCCCCCCCN(CCCCCCCCCC(=O)OCCCCCCC)CCOC(=O)NCCN(C)C [Lipid 120, heptyl 10-(10-(heptyloxy)-10-oxodecyl)-2-methyl-6-oxo-7-oxa-2,5,10-triazaicosan-20-oate]	2.13E+03	96	8.51E+03	100	3.33E+05	9.34	81	0.09314	143.8

Reference: patent US12691070B2, “Cationic lipids and preparation method thereof” (RiboX Therapeutics HK Limited, priority 2023, dated 2026)
